Experimental data taken from patent US12606541B2, “PPARg modulators and methods of use” (Eisai R&D Management Co., Ltd., priority 2020, dated 2026).
Where two headings read alike, the source gives them in different places.

Tests used:
His6-TEV-PPARγ-(234-505) = target: T1, His6-TEV-PPARγ-(234-505) (Homo sapiens, UniProt P37231); experiment: TR-FRET Assay to Measure Co-R Peptide Recruitment to PPARγ; assay type: biochemical; conditions: Co-R peptide (SMRT-ID2) recruitment; top final concentration 20 μM; read-out: TR-FRET i-Ag; AC50
T1 construct: The His6-TEV-PPARγ-(234-505) protein for assay was expressed and purified; TEV cleavage site (N); made in house
T1 sequence (P37231 234-505): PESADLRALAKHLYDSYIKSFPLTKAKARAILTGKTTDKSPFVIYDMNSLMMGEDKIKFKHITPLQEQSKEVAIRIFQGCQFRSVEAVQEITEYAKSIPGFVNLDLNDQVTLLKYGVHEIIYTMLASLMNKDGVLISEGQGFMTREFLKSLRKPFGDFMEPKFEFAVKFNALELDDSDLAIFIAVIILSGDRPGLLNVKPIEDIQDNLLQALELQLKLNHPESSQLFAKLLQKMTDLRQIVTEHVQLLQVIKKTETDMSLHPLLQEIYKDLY
Outline: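 His-tagged PPARγ (or controls) was preincubated with compound for 20 minutes at room temperature, then 5 nM anti-His terbium antibody and 200 nM FITC-labeled SMRT-ID2 corepressor peptide (final) were added for a further hour. TR-FRET signal was normalized to percent response using 500 nM T0070907 and DMSO controls.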

UM-UC-9 engineered cells = experiment: Cell proliferation / short-term viability assay, CellTiter-Glo 144 h; assay type: cell-based, human; conditions: read-out: CTGlo 144 h UMUC9.5, G150
Outline: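 UM-UC-9 engineered assay-ready cells seeded at 500 cells/well in high-glucose DMEM/10% FBS, treated from dose-response plates, grown at 37° C, 5% CO2. CellTiter-Glo 2.0 luminescence read on day 7, with a day-0 pretreatment plate as T0 reference and DMSO wells as negative control.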

COc1cc(-c2cc(C(=O)N3CC[C@H](C(=O)NCc4ncc(OC(C)C)cc4Cl)CC34CC4)n[nH]2)c(F)cn1 [Example 491, (S)—N-((3-chloro-5-isopropoxypyridin-2-yl)methyl)-4-(5-(5-fluoro-2-methoxypyridin-4-yl)-1H-pyrazole-3-carbonyl)-4-azaspiro[2.5]octane-7-carboxamide]
AC50 (His6-TEV-PPARγ-(234-505)): 0.3 nM | IC50 (UM-UC-9 engineered cells; Homo sapiens, UM-UC-9, 144 h): 11 nM

COc1cc(-c2cc(C(=O)N3CC[C@H](C(=O)Nc4cnn5cc(C(C)=O)ccc45)CC34CC4)n[nH]2)c(F)cn1 [Example 494, (S)—N-(6-acetylpyrazolo[1,5-a]pyridin-3-yl)-4-(5-(5-fluoro-2-methoxypyridin-4-yl)-1H-pyrazole-3-carbonyl)-4-azaspiro[2.5]octane-7-carboxamide]
AC50 (His6-TEV-PPARγ-(234-505)): 6.7 nM | IC50 (UM-UC-9 engineered cells; Homo sapiens, UM-UC-9, 144 h): 80.8 nM

COc1cc(-c2cc(C(=O)N3CC[C@H](C(=O)NC4CCC5(COC5)c5cccnc54)CC34CC4)n[nH]2)c(F)cn1 (stereo partly drawn) [Example 496, (7S)—N-(7′,8′-dihydro-6′H-spiro[oxetane-3,5′-quinolin]-8′-yl)-4-(5-(5-fluoro-2-methoxypyridin-4-yl)-1H-pyrazole-3-carbonyl)-4-azaspiro[2.5]octane-7-carboxamide]
AC50 (His6-TEV-PPARγ-(234-505)): 9.6 nM | IC50 (UM-UC-9 engineered cells; Homo sapiens, UM-UC-9, 144 h): 68.2 nM

CCN1CC(NC(=O)[C@H]2CCN(C(=O)c3cc(-c4cc(OC)ncc4F)[nH]n3)C3(CC3)C2)CCC12COC2 (stereo partly drawn) [Example 497, (7S)—N-(5-ethyl-2-oxa-5-azaspiro[3.5]nonan-7-yl)-4-(5-(5-fluoro-2-methoxypyridin-4-yl)-1H-pyrazole-3-carbonyl)-4-azaspiro[2.5]octane-7-carboxamide]
AC50 (His6-TEV-PPARγ-(234-505)): 87.7 nM | IC50 (UM-UC-9 engineered cells; Homo sapiens, UM-UC-9, 144 h): 645 nM

COc1cc(-c2cc(C(=O)N3CC[C@H](C(=O)Nc4cnn5c4OC(C)(C)CC5)CC34CC4)n[nH]2)c(F)cn1 [Example 498, (S)—N-(5,5-dimethyl-6,7-dihydro-5H-pyrazolo[5,1-b][1,3]oxazin-3-yl)-4-(5-(5-fluoro-2-methoxypyridin-4-yl)-1H-pyrazole-3-carbonyl)-4-azaspiro[2.5]octane-7-carboxamide]
AC50 (His6-TEV-PPARγ-(234-505)): 2.9 nM | IC50 (UM-UC-9 engineered cells; Homo sapiens, UM-UC-9, 144 h): 21.9 nM

COc1cc(-c2cc(C(=O)N3CC[C@H](C(=O)NCC45COC(CN)(C4)C5)CC34CC4)n[nH]2)c(F)cn1 [Example 499, (S)—N-((1-(aminomethyl)-2-oxabicyclo[2.1.1]hexan-4-yl)methyl)-4-(5-(5-fluoro-2-methoxypyridin-4-yl)-1H-pyrazole-3-carbonyl)-4-azaspiro[2.5]octane-7-carboxamide]
AC50 (His6-TEV-PPARγ-(234-505)): 294 nM | IC50 (UM-UC-9 engineered cells; Homo sapiens, UM-UC-9, 144 h): > 10000 nM

COc1cc(-c2cc(C(=O)N3CC[C@H](C(=O)NCc4cccnc4C(F)(F)F)CC34CC4)[nH]n2)c(F)cn1 [Example 500, (S)-4-(3-(5-fluoro-2-methoxypyridin-4-yl)-1H-pyrazole-5-carbonyl)-N-((2-(trifluoromethyl)pyridin-3-yl)methyl)-4-azaspiro[2.5]octane-7-carboxamide]
AC50 (His6-TEV-PPARγ-(234-505)): 7.5 nM | IC50 (UM-UC-9 engineered cells; Homo sapiens, UM-UC-9, 144 h): 13.3 nM

COc1cc(-c2cc(C(=O)N3CC[C@H](C(=O)NCc4[nH]cnc4C(F)(F)F)CC34CC4)[nH]n2)c(F)cn1 [Example 503, (S)-4-(3-(5-fluoro-2-methoxypyridin-4-yl)-1H-pyrazole-5-carbonyl)-N-((4-(trifluoromethyl)-1H-imidazol-5-yl)methyl)-4-azaspiro[2.5]octane-7-carboxamide]
AC50 (His6-TEV-PPARγ-(234-505)): 8.1 nM | IC50 (UM-UC-9 engineered cells; Homo sapiens, UM-UC-9, 144 h): 146 nM

COc1cc(-c2cc(C(=O)N3CC[C@H](C(=O)NCc4conc4C(F)(F)F)CC34CC4)[nH]n2)c(F)cn1 [Example 505, (S)-4-(3-(5-fluoro-2-methoxypyridin-4-yl)-1H-pyrazole-5-carbonyl)-N-((3-(trifluoromethyl)isoxazol-4-yl)methyl)-4-azaspiro[2.5]octane-7-carboxamide]
AC50 (His6-TEV-PPARγ-(234-505)): 6.9 nM | IC50 (UM-UC-9 engineered cells; Homo sapiens, UM-UC-9, 144 h): 10.3 nM

COc1cc(-c2cc(C(=O)N3CC[C@H](C(=O)NCc4c(C(F)(F)F)cnn4C)CC34CC4)[nH]n2)c(F)cn1 [Example 507, (S)-4-(3-(5-fluoro-2-methoxypyridin-4-yl)-1H-pyrazole-5-carbonyl)-N-((1-methyl-4-(trifluoromethyl)-1H-pyrazol-5-yl)methyl)-4-azaspiro[2.5]octane-7-carboxamide]
AC50 (His6-TEV-PPARγ-(234-505)): 17.4 nM | IC50 (UM-UC-9 engineered cells; Homo sapiens, UM-UC-9, 144 h): 14.1 nM

COc1cc(-c2cc(C(=O)N3CC[C@H](C(=O)NCc4nnn(C)c4C(F)(F)F)CC34CC4)[nH]n2)c(F)cn1 [Example 508, (S)-4-(3-(5-fluoro-2-methoxypyridin-4-yl)-1H-pyrazole-5-carbonyl)-N-((1-methyl-5-(trifluoromethyl)-1H-1,2,3-triazol-4-yl)methyl)-4-azaspiro[2.5]octane-7-carboxamide]
AC50 (His6-TEV-PPARγ-(234-505)): 5.6 nM | IC50 (UM-UC-9 engineered cells; Homo sapiens, UM-UC-9, 144 h): 8.5 nM

COc1cc(-c2cc(C(=O)N3CC[C@H](C(=O)NCc4cn(C)nc4C(F)(F)F)CC34CC4)[nH]n2)c(F)cn1 [Example 509, (S)-4-(3-(5-fluoro-2-methoxypyridin-4-yl)-1H-pyrazole-5-carbonyl)-N-((1-methyl-3-(trifluoromethyl)-1H-pyrazol-4-yl)methyl)-4-azaspiro[2.5]octane-7-carboxamide]
AC50 (His6-TEV-PPARγ-(234-505)): 4.2 nM | IC50 (UM-UC-9 engineered cells; Homo sapiens, UM-UC-9, 144 h): 7 nM

COc1cc(-c2cc(C(=O)N3CC[C@H](C(=O)NCc4ncccc4C(F)(F)F)CC34CC4)[nH]n2)c(F)cn1 [Example 510, (S)-4-(3-(5-fluoro-2-methoxypyridin-4-yl)-1H-pyrazole-5-carbonyl)-N-((3-(trifluoromethyl)pyridin-2-yl)methyl)-4-azaspiro[2.5]octane-7-carboxamide]
AC50 (His6-TEV-PPARγ-(234-505)): 3.8 nM | IC50 (UM-UC-9 engineered cells; Homo sapiens, UM-UC-9, 144 h): 1.8 nM

COc1cc(-c2cc(C(=O)N3CC[C@H](C(=O)NCc4ncc(F)cn4)CC34CC4)[nH]n2)c(F)cn1 [Example 512, (S)-4-(3-(5-fluoro-2-methoxypyridin-4-yl)-1H-pyrazole-5-carbonyl)-N-((5-fluoropyrimidin-2-yl)methyl)-4-azaspiro[2.5]octane-7-carboxamide]
AC50 (His6-TEV-PPARγ-(234-505)): 11.2 nM | IC50 (UM-UC-9 engineered cells; Homo sapiens, UM-UC-9, 144 h): 97.2 nM

COc1cc(-c2cc(C(=O)N3CC[C@H](C(=O)NCc4cccnc4C(F)(F)F)CC34CC4)[nH]n2)c(F)cn1 [Example 513, (S)-4-(3-(5-fluoro-2-methoxypyridin-4-yl)-1H-pyrazole-5-carbonyl)-N-((2-(trifluoromethyl)pyridin-3-yl)methyl)-4-azaspiro[2.5]octane-7-carboxamide]
AC50 (His6-TEV-PPARγ-(234-505)): 6.1 nM | IC50 (UM-UC-9 engineered cells): 15.4 nM

COc1cc(-c2cc(C(=O)N3CC[C@H](C(=O)NCC45CC(C(F)(F)F)(C4)C5)CC34CC4)[nH]n2)c(F)cn1 [Example 515, (S)-4-(3-(5-fluoro-2-methoxypyridin-4-yl)-1H-pyrazole-5-carbonyl)-N-((3-(trifluoromethyl)bicyclo[1.1.1]pentan-1-yl)methyl)-4-azaspiro[2.5]octane-7-carboxamide]
AC50 (His6-TEV-PPARγ-(234-505)): 5 nM | IC50 (UM-UC-9 engineered cells; Homo sapiens, UM-UC-9, 144 h): 6 nM

COc1cc(-c2cc(C(=O)N3CC[C@H](C(=O)NCc4cnccc4C(F)(F)F)CC34CC4)n[nH]2)c(F)cn1 [Example 516, (S)-4-(5-(5-fluoro-2-methoxypyridin-4-yl)-1H-pyrazole-3-carbonyl)-N-((4-(trifluoromethyl)pyridin-3-yl)methyl)-4-azaspiro[2.5]octane-7-carboxamide]
AC50 (His6-TEV-PPARγ-(234-505)): 3.3 nM | IC50 (UM-UC-9 engineered cells; Homo sapiens, UM-UC-9, 144 h): 10 nM
